Our source for the EC50 values is patent US8916702B2 (priority 2012, dated 2014).

SMILES strings stand for the structures. Where two headings read alike, the source gives them in different places.

The test concerns HCV pseudoparticles (genotype 1a HCV E1 and E2 envelope, H77C isolate). The experiment in a line: microbe, parasite or virus in culture. The test is classed as cell-based. The settings on record: Hepatitis C virus.
Where [1] appears, read: Huh-7, 48 h, read-out: Activity (EC50 class), HCV pseudoparticle infection of Huh7 cells, luciferase 2 days after infection, EC50 expressed as class A/B.
Where [2] appears, read: Huh-7, 48 h, read-out: Activity (EC50 class), HCV pseudoparticles, Huh7 cells, luciferase 2 days after infection, average of duplicates.
[3] abbreviates: Huh-7, read-out: Activity (EC50 class), HCV pseudoparticles (genotype 1a, H77C) in Huh7 cells, EC50 expressed as class A/B.
Where [4] appears, read: Huh-7, 48 h, HCV pseudoparticles (genotype 1a, H77C) in Huh7 cells, average of duplicate, luciferase 2 days after infection.
[5] abbreviates: Huh-7, 48 h, HCV pseudoparticle infection of Huh7 cells, luciferase 2 days after infection, average of duplicates.

What is called EC50 is the concentration needed to bring the measured effect to its halfway point. Consider `O=C(NC[C@H](NC(=O)c1ccc(Nc2nc(NC3(c4ccc(Cl)cc4)CC3)nc(OCC(F)(F)F)n2)cc1)C(=O)O)C(=O)Nn1cnnc1` [Compound 1350], for which, under setting [1], the EC50 is 10 to 1000 nM.
Regarding `CC(F)Oc1cccc(NC(=O)C(=O)NCC[C@H](NC(=O)c2ccc(Nc3nc(NC4(c5ccc(Cl)cc5)CC4)nc(OCC(F)(F)F)n3)cc2)C(=O)O)c1` (some centres unmarked) [Compound 3633], the EC50 is 0.058 nM (Huh-7, 48 h, HCV pseudoparticles, Huh7 cells, luciferase 2 days after infection, average of duplicates) and 0.01 to 10 nM under setting [2].
Regarding `CCOC(=O)[C@H](CNC(=O)C(=O)N(C)C)NC(=O)c1ccc(Nc2nc(NC3(c4ccc(Cl)cc4)CC3)nc(OCC(F)(F)F)n2)cc1` [Compound 1020, (S)-ethyl 2-(4-(4-(1-(4-chlorophenyl)cyclopropylamino)-6-(2,2,2-trifluoroethoxy)-1,3,5-triazin-2-ylamino)benzamido)-3-(2-(dimethylamino)-2-oxoacetamido)propanoate], the EC50 under setting [1] is 0.01 to 10 nM.
`COC(=O)/C(CCNC(=O)C(=O)Nc1cccc(-c2csc(C)n2)c1)=N\C(=O)c1ccc(Nc2nc(NC3(c4ccc(Cl)cc4)CC3)nc(OCC(F)(F)F)n2)cc1` [Compound 3596]: under setting [3], the EC50 was in the range of 0.01 to 10 nM.
On to `COC(=O)[C@H](CCNC(=O)C(=O)NCc1c(F)cccc1F)NC(=O)c1ccc(Nc2nc(NC3(c4ccc(Cl)cc4)CC3)nc(OCC(F)(F)F)n2)cc1` [Compound 1158], for which the EC50 under setting [1] was in the range of 0.01 to 10 nM.
Regarding `COC(=O)[C@H](CNC(=O)C(=O)N(C)c1ccccc1)NC(=O)c1ccc(Nc2nc(NC3(c4ccc(Cl)cc4)CC3)nc(OCC(F)(F)F)n2)cc1` [Compound 1257], the EC50 under setting [1] was 0.01 to 10 nM.
Regarding `CC(C)(CNC(=O)c1ccc(Nc2nc(NC3(c4ccc(Cl)cc4)CC3)nc(OCC(F)(F)F)n2)cc1)NC(=O)C(=O)Nc1nccs1` [Compound 3437], the EC50 under setting [3] was 0.01 to 10 nM.
For `COC(=O)[C@H](CCNC(=O)C(=O)N[C@H](C)C1CC1)NC(=O)c1ccc(Nc2nc(NC3(c4ccc(Cl)cc4)CC3)nc(OCC(F)(F)F)n2)cc1` [Compound 1377], the EC50 under setting [1] was in the range of 0.01 to 10 nM.
As to `Cc1ccn(-c2ccccc2NC(=O)C(=O)NCC(C)(C)CNC(=O)c2ccc(Nc3nc(NC4(c5ccc(Cl)cc5)CC4)nc(OCC(F)(F)F)n3)cc2)n1` [Compound 3260], the EC50 under setting [3] was 0.01 to 10 nM.
Take `CNS(=O)(=O)c1cccc(NC(=O)C(=O)NCC[C@H](NC(=O)c2ccc(Nc3nc(NC4(c5ccc(Cl)cc5)CC4)nc(OCC(F)(F)F)n3)cc2)C(=O)O)c1` [Compound 3651]: the EC50 under setting [2] is 0.01 to 10 nM.
As for `CNC(=O)CCc1cccc(NC(=O)C(=O)NCC(C)(C)CNC(=O)c2ccc(Nc3nc(NC4(c5ccc(Cl)cc5)CC4)nc(OCC(F)(F)F)n3)cc2)c1` [Compound 3037], the EC50 under setting [3] was 0.01 to 10 nM.
On to `COC(=O)[C@@H](CCNC(=O)C(=O)Nc1ccc(Oc2ccc(C(C)(C)C)cc2)nc1)NC(=O)c1ccc(Nc2nc(NC3(c4ccc(Cl)cc4)CC3)nc(OCC(F)(F)F)n2)cc1` [Compound 3581], for which, under setting [3], the EC50 lay in the range of 0.01 to 10 nM.
For `CC1CC(=O)c2ccc(NC(=O)C(=O)NCC(C)(C)CNC(=O)c3ccc(Nc4nc(NC5(c6ccc(Cl)cc6)CC5)nc(OCC(F)(F)F)n4)cc3)cc2O1` (centres unmarked) [Compound 3336], the EC50 runs as follows: under setting [4], 0.09 nM; under setting [3], 0.01 to 10 nM.
For the molecule `O=C(NCC[C@H](NC(=O)c1ccc(Nc2nc(NC3(c4ccc(Cl)cc4)CC3)nc(OCC(F)(F)F)n2)cc1)C(=O)O)C(=O)Nc1ccc(C(O)N2CCOCC2)cc1` (some centres unmarked) [Compound 3229], the EC50 under setting [3] lay in the range of 10 to 1000 nM.
For `CCc1ccc(COc2nc(Nc3ccc(C(=O)NCC(C)(C)CNC(=O)C(=O)Nc4ccc(C)cc4)cc3)nc(NC3(c4ccc(Cl)cc4)CC3)n2)cc1` [Compound 3842], the EC50 under setting [2] is 0.01 to 10 nM.
With `COc1ccc2nc(NC(=O)C(=O)NCC(C)(C)CNC(=O)c3ccc(Nc4nc(NC5(c6ccc(Cl)cc6)CC5)nc(OCC(F)(F)F)n4)cc3)sc2c1` [Compound 3816], the EC50 under setting [2] lay in the range of 0.01 to 10 nM.
As for `Cc1nccc(-c2cccc(NC(=O)C(=O)NC[C@H](NC(=O)c3ccc(Nc4nc(NC5(c6ccc(Cl)cc6)CC5)nc(OCC(F)(F)F)n4)cc3)C(=O)O)c2)n1` [Compound 3756], the EC50 under setting [2] fell in the range of 0.01 to 10 nM.
Turning to `O=C(Nc1ccc(F)cc1F)C(=O)N1CCCC(CNC(=O)c2ccc(Nc3nc(NC4(c5ccc(Cl)cc5)CC4)nc(OCC(F)(F)F)n3)cc2)C1` (centres unmarked) [Compound 3484], the EC50 under setting [3] lay within 0.01 to 10 nM.
Take `CC(O)N1CCN(c2ccc(NC(=O)C(=O)NC[C@H](NC(=O)c3ccc(Nc4nc(NC5(c6ccc(Cl)cc6)CC5)nc(OCC(F)(F)F)n4)cc3)C(=O)O)cc2)CC1` (some centres unmarked) [Compound 3271]: the EC50 by setting is: under setting [4], 1.38 nM; under setting [3], 0.01 to 10 nM.
Turning to `CC(C)(CNC(=O)c1ccc(Nc2nc(NC3(c4ccc(Cl)cc4)CC3)nc(OCC(F)(F)F)n2)cc1)NC(=O)C(=O)Nc1ccccc1` [Compound 3425], the EC50 by setting is: under setting [4], 0.033 nM; under setting [3], 0.01 to 10 nM.
On to `COC(=O)[C@H](CCNC(=O)C(=O)Nc1ccncc1)NC(=O)c1ccc(Nc2nc(NC3(c4ccc(Cl)cc4)CC3)nc(OCC(F)(F)F)n2)cc1` [Compound 1236], for which the EC50 under setting [1] lay within 0.01 to 10 nM.
Consider `C[C@@H](NC(=O)C(=O)NC[C@H](NC(=O)c1ccc(Nc2nc(NC3(c4ccc(Cl)cc4)CC3)nc(OCC(F)(F)F)n2)cc1)C(=O)O)C1CCCCC1` [Compound 1476], for which, under setting [1], the EC50 is 0.01 to 10 nM.
As for `COc1ccc(NC(=O)C(=O)NCC(C)(C)CNC(=O)c2ccc(Nc3nc(NC4(c5ccc(Cl)cc5)CC4)nc(OCC(F)(F)F)n3)cc2F)c(OC)c1` [Compound 3560], the EC50 under setting [3] lay within 0.01 to 10 nM.
With `COC(=O)[C@@H](CCNC(=O)C(=O)NCC1(CN2CCCC2)CC1)NC(=O)c1ccc(Nc2nc(NC3(c4ccc(Cl)cc4)CC3)nc(OCC(F)(F)F)n2)cc1` [Compound 1384], the EC50 under setting [1] was in the range of 0.01 to 10 nM.
`CC(C)(CNC(=O)C(=O)Nc1ccc(C(=O)O)cc1)CNC(=O)c1ccc(Nc2nc(NC3(c4ccc(Cl)cc4)CC3)nc(OCC(F)(F)F)n2)cc1` [Compound 1457]: under setting [1], the EC50 fell in the range of 0.01 to 10 nM.
Still for that read-out and setting: the figure for `COC(=O)[C@H](CNC(=O)C(=O)NCC1CCc2ccccc21)NC(=O)c1ccc(Nc2nc(NC3(c4ccc(Cl)cc4)CC3)nc(OCC(F)(F)F)n2)cc1` (some centres unmarked) [Compound 1303] is 0.01 to 10 nM.
Take `CC(C)(CNC(=O)C(=O)Nc1ccccc1-c1nnco1)CNC(=O)c1ccc(Nc2nc(NC3(c4ccc(Cl)cc4)CC3)nc(OCC(F)(F)F)n2)cc1` [Compound 3246]: the EC50 under setting [3] fell in the range of 0.01 to 10 nM.
With `COC(=O)[C@H](CCNC(=O)C(=O)NCCc1ccc(OC)cc1)NC(=O)c1ccc(Nc2nc(NC3(c4ccc(Cl)cc4)CC3)nc(OCC(F)(F)F)n2)cc1` [Compound 1310], the EC50 by setting is: under setting [5], 0.62 nM; under setting [1], 0.01 to 10 nM.
The corresponding values for `COC(=O)[C@H](CCNC(=O)C(=O)NC(c1ccc(OC)cc1)C1CC1)NC(=O)c1ccc(Nc2nc(NC3(c4ccc(Cl)cc4)CC3)nc(OCC(F)(F)F)n2)cc1` (some centres unmarked) [Compound 1418] are 0.28 nM and 0.01 to 10 nM.
For `COc1ccccc1-c1ccccc1NC(=O)C(=O)NCC(C)(C)CNC(=O)c1ccc(Nc2nc(NC3(c4ccc(Cl)cc4)CC3)nc(OCC(F)(F)F)n2)cc1` [Compound 3050], the EC50 under setting [3] lay within 0.01 to 10 nM.
Turning to `Cn1cc(NC(=O)C(=O)NCC[C@H](NC(=O)c2ccc(Nc3nc(NC4(c5ccc(Cl)cc5)CC4)nc(OCC(F)(F)F)n3)cc2)C(=O)O)cn1` [Compound 1268], the EC50 under setting [1] is 0.01 to 10 nM.
For the molecule `NC(=O)C(=O)NCC(O)CNC(=O)c1ccc(Nc2nc(NC3(c4ccc(Cl)cc4)CC3)nc(OCC(F)(F)F)n2)cc1` (centres unmarked) [Compound 3458], the EC50 under setting [3] fell in the range of 0.01 to 10 nM.
In the case of `CC(C)(CNC(=O)C(=O)Nc1nc2ccc(OC(F)(F)F)cc2s1)CNC(=O)c1ccc(Nc2nc(NC3(c4ccc(Cl)cc4)CC3)nc(OCC(F)(F)F)n2)cc1` [Compound 3823], under setting [2], the EC50 lay in the range of 0.01 to 10 nM.
Take `COC(=O)[C@H](CNC(=O)C(=O)Nc1ccc(N2CCCC2)nc1)NC(=O)c1ccc(Nc2nc(NC3(c4ccc(Cl)cc4)CC3)nc(OCC(F)(F)F)n2)cc1` [Compound 3721]: the EC50 under setting [2] lay within 0.01 to 10 nM.
On to `COC(=O)[C@H](CNC(=O)C(=O)Nc1ccc(Oc2ccc(F)cc2)cc1)NC(=O)c1ccc(Nc2nc(NC3(c4ccc(Cl)cc4)CC3)nc(OCC(F)(F)F)n2)cc1` [Compound 3184], for which the EC50 under setting [3] lay within 0.01 to 10 nM.
On the same count and under the same terms, the figure for `COC(=O)[C@H](CNC(=O)C(=O)Nc1ccc(CN2CCCCC2)cc1)NC(=O)c1ccc(Nc2nc(NC3(c4ccc(Cl)cc4)CC3)nc(OCC(F)(F)F)n2)cc1` [Compound 3196] is 0.01 to 10 nM.
Consider `O=C(NCc1ccc(F)c(F)c1)C(=O)NC[C@H](NC(=O)c1ccc(Nc2nc(NC3(c4ccc(Cl)cc4)CC3)nc(OCC(F)(F)F)n2)cc1)C(=O)O` [Compound 1171], for which the EC50 under setting [1] was in the range of 0.01 to 10 nM.
For `O=C(CNC(=O)C(=O)Nc1cccc(F)c1)CNC(=O)c1ccc(Nc2nc(NC3(c4ccc(Cl)cc4)CC3)nc(OCC(F)(F)F)n2)cc1` [Compound 3363], under setting [3], the EC50 is 0.01 to 10 nM.
On to `O=C(NCC[C@H](NC(=O)c1ccc(Nc2nc(NC3(c4ccc(Cl)cc4)CC3)nc(OCC(F)(F)F)n2)cc1)C(=O)O)C(=O)Nc1ccc(Oc2ccncc2)cc1` [Compound 3544], for which the EC50 under setting [3] fell in the range of 10 to 1000 nM.
The same measure, in the same setting: the figure for `O=C(NCC[C@@H](NC(=O)c1ccc(Nc2nc(NC3(c4ccc(Cl)cc4)CC3)nc(OCC(F)(F)F)n2)cc1)C(=O)O)C(=O)Nc1cc(F)c(F)c(F)c1F` [Compound 3051] is 0.01 to 10 nM.
As for `CC(C)(CNC(=O)C(=O)Nc1ccc(Cl)nc1)CNC(=O)c1ccc(Nc2nc(NC3(c4ccc(Cl)cc4)CC3)nc(OCC(F)(F)F)n2)cc1` [Compound 3255], the EC50 runs as follows: under setting [4], 0.029 nM; under setting [3], 0.01 to 10 nM.
With `COC(=O)[C@H](CNC(=O)C(=O)Nc1ccc(OC2CCOCC2)cc1)NC(=O)c1ccc(Nc2nc(NC3(c4ccc(Cl)cc4)CC3)nc(OCC(F)(F)F)n2)cc1` [Compound 3208], the EC50 under setting [3] fell in the range of 0.01 to 10 nM.
For the molecule `CN(CCCN(C)C(=O)c1ccc(Nc2nc(NC3(c4ccc(Cl)cc4)CC3)nc(OCC(F)(F)F)n2)cc1)C(=O)C(=O)Nc1cc(F)cc(F)c1` [Compound 3427], the concentration for a half-maximal effect (EC50) under setting [3] was 0.01 to 10 nM.
